Data taken from article PMC5218480 (PLoS ONE, 2017).

Tested on: MV-4-11 cells
Assay: Gene expression microarray analysis (Affymetrix PrimeView) and GSEA
Type: cell-based, human
Parameters: RFU PODN (11730768_x_at) / Fold change /veh PODN (11730768_x_at) / RFU LINC00158 (11744669_a_at) / Fold change /veh LINC00158 (11744669_a_at) / RFU DUSP10 (11751237_a_at) / Fold change /veh DUSP10 (11751237_a_at) / RFU ID3 (11757404_x_at) / Fold change /veh ID3 (11757404_x_at) / RFU PLEKHG5 (11737974_s_at) / Fold change /veh PLEKHG5 (11737974_s_at) / RFU LRRC4B (11730491_at) / Fold change /veh LRRC4B (11730491_at) / RFU GIMAP4 (11747438_a_at) / Fold change /veh GIMAP4 (11747438_a_at) / RFU KRT8 (11758183_x_at) / Fold change /veh KRT8 (11758183_x_at) / RFU CNN1 (11734310_a_at) / Fold change /veh CNN1 (11734310_a_at) / RFU VPS37D (11726825_at) / Fold change /veh VPS37D (11726825_at) / RFU C10orf10 (11716522_x_at) / Fold change /veh C10orf10 (11716522_x_at) / RFU KIR2DL2 /// KIR2DL4 /// KIR2DL5A /// KIR2DL5B /// KIR2DS1 /// KIR2DS2 /// KIR2DS3 /// KIR2DS4 /// KIR3DL3 /// KIR3DL3 /// KIR3DS1 (11738374_at) / Fold change /veh KIR2DL2 /// KIR2DL4 /// KIR2DL5A /// KIR2DL5B /// KIR2DS1 /// KIR2DS2 /// KIR2DS3 /// KIR2DS4 /// KIR3DL3 /// KIR3DL3 /// KIR3DS1 (11738374_at) / RFU C1QL1 (11718748_at) / Fold change /veh C1QL1 (11718748_at) / RFU TMPRSS4 (11747572_a_at) / Fold change /veh TMPRSS4 (11747572_a_at) / RFU HAMP (11756126_x_at) / Fold change /veh HAMP (11756126_x_at) / RFU RNFT2 (11725882_a_at) / Fold change /veh RNFT2 (11725882_a_at) / RFU NR4A2 (11747474_a_at) / Fold change /veh NR4A2 (11747474_a_at) / RFU ABCC12 (11746883_a_at) / Fold change /veh ABCC12 (11746883_a_at) / RFU TMEM136 (11760407_x_at) / Fold change /veh TMEM136 (11760407_x_at) / RFU CLDN22 /// WWC2 (11732394_at) / Fold change /veh CLDN22 /// WWC2 (11732394_at) / RFU HLA-DPB1 (11760878_x_at) / Fold change /veh HLA-DPB1 (11760878_x_at) / RFU SPINT1 (11716480_a_at) / Fold change /veh SPINT1 (11716480_a_at) / RFU GAP43 (11754022_s_at) / Fold change /veh GAP43 (11754022_s_at) / RFU A4GNT (11735810_at) / Fold change /veh A4GNT (11735810_at) / RFU PRB3 (11715151_x_at) / Fold change /veh PRB3 (11715151_x_at) / RFU TUBB4B (11761932_at) / Fold change /veh TUBB4B (11761932_at) / RFU CAPN14 (11732068_a_at) / Fold change /veh CAPN14 (11732068_a_at) / RFU TMCC2 (11721928_a_at) / Fold change /veh TMCC2 (11721928_a_at) / RFU IRGQ (11745062_a_at) / Fold change /veh IRGQ (11745062_a_at) / RFU FAM174B (11720279_a_at) / Fold change /veh FAM174B (11720279_a_at) / RFU TMPRSS4 (11748680_a_at) / Fold change /veh TMPRSS4 (11748680_a_at) / RFU FAM212B (11763350_a_at) / Fold change /veh FAM212B (11763350_a_at) / RFU PLEKHG5 (11743358_a_at) / Fold change /veh PLEKHG5 (11743358_a_at) / RFU ZSCAN30 (11745921_a_at) / Fold change /veh ZSCAN30 (11745921_a_at) / RFU CMKLR1 (11741424_a_at) / Fold change /veh CMKLR1 (11741424_a_at) / RFU LOC101060620 /// MAPK8IP1 (11723275_at) / Fold change /veh LOC101060620 /// MAPK8IP1 (11723275_at) / RFU SPTSSB (11747773_x_at) / Fold change /veh SPTSSB (11747773_x_at) / RFU PRSS12 (11739890_at) / Fold change /veh PRSS12 (11739890_at) / RFU BIN1 (11741810_x_at) / Fold change /veh BIN1 (11741810_x_at) / RFU WNT11 (11732464_a_at) / Fold change /veh WNT11 (11732464_a_at) / RFU C10orf10 (11716521_a_at) / Fold change /veh C10orf10 (11716521_a_at) / RFU C5orf56 (11738089_at) / Fold change /veh C5orf56 (11738089_at) / RFU CYB561 (11721691_x_at) / Fold change /veh CYB561 (11721691_x_at) / RFU ANKRD19P (11752326_a_at) / Fold change /veh ANKRD19P (11752326_a_at) / RFU OR2T12 /// OR2T33 /// OR2T8 (11738714_s_at) / Fold change /veh OR2T12 /// OR2T33 /// OR2T8 (11738714_s_at) / RFU VCAN (11748164_a_at) / Fold change /veh VCAN (11748164_a_at) / RFU JSRP1 (11732532_at) / Fold change /veh JSRP1 (11732532_at) / RFU KRTAP10-11 (11738290_x_at) / Fold change /veh KRTAP10-11 (11738290_x_at) / RFU MYO3A (11730013_a_at) / Fold change /veh MYO3A (11730013_a_at) / RFU EBF3 (11725865_a_at) / Fold change /veh EBF3 (11725865_a_at) / RFU CAMK2N1 (11719241_x_at) / Fold change /veh CAMK2N1 (11719241_x_at) / RFU C5orf56 (11738088_a_at) / Fold change /veh C5orf56 (11738088_a_at) / RFU OLFML3 (11715873_a_at) / Fold change /veh OLFML3 (11715873_a_at) / RFU LOC100653217 /// NTM (11731650_a_at) / Fold change /veh LOC100653217 /// NTM (11731650_a_at) / RFU MAPK11 (11762145_a_at) / Fold change /veh MAPK11 (11762145_a_at) / RFU FIZ1 (11724087_x_at) / Fold change /veh FIZ1 (11724087_x_at) / RFU OASL (11726364_x_at) / Fold change /veh OASL (11726364_x_at) / RFU SOX15 (11748057_x_at) / Fold change /veh SOX15 (11748057_x_at) / RFU CD79A (11719716_a_at) / Fold change /veh CD79A (11719716_a_at) / RFU HIST1H1D (11736915_at) / Fold change /veh HIST1H1D (11736915_at) / RFU CASKIN2 (11723855_a_at) / Fold change /veh CASKIN2 (11723855_a_at) / RFU LOC730098 (11760151_x_at) / Fold change /veh LOC730098 (11760151_x_at) / RFU OR4N2 (11742367_at) / Fold change /veh OR4N2 (11742367_at) / RFU PRRT2 (11749266_a_at) / Fold change /veh PRRT2 (11749266_a_at) / RFU SNX32 (11753110_a_at) / Fold change /veh SNX32 (11753110_a_at) / RFU CDHR5 (11726645_a_at) / Fold change /veh CDHR5 (11726645_a_at) / RFU RCAN1 (11760418_a_at) / Fold change /veh RCAN1 (11760418_a_at) / RFU FAM167A (11723789_a_at) / Fold change /veh FAM167A (11723789_a_at) / RFU FAM26E (11764081_at) / Fold change /veh FAM26E (11764081_at) / RFU ISYNA1 (11749810_s_at) / Fold change /veh ISYNA1 (11749810_s_at) / RFU ACY1 (11761880_at) / Fold change /veh ACY1 (11761880_at) / RFU 11764098_at / Fold change /veh 11764098_at / RFU SAMD14 (11745864_x_at) / Fold change /veh SAMD14 (11745864_x_at) / RFU NPB (11741838_a_at) / Fold change /veh NPB (11741838_a_at) / RFU TMPRSS6 (11731388_a_at) / Fold change /veh TMPRSS6 (11731388_a_at) / RFU KRTAP10-2 (11738614_at) / Fold change /veh KRTAP10-2 (11738614_at) / RFU ARHGAP8 /// PRR5-ARHGAP8 (11727945_x_at) / Fold change /veh ARHGAP8 /// PRR5-ARHGAP8 (11727945_x_at) / RFU KRTAP5-7 /// NADSYN1 (11734609_at) / Fold change /veh KRTAP5-7 /// NADSYN1 (11734609_at) / RFU RASL12 (11751679_a_at) / Fold change /veh RASL12 (11751679_a_at) / RFU CDKN2B (11736163_a_at) / Fold change /veh CDKN2B (11736163_a_at) / RFU PRF1 (11729649_at) / Fold change /veh PRF1 (11729649_at) / RFU, ZNF638 /// ZNF638-IT1 / Fold change vs veh, ZNF638 /// ZNF638-IT1 / RFU, PANK3 / Fold change vs veh, PANK3 / RFU, SH3YL1 / Fold change vs veh, SH3YL1 / RFU, ZEB2 / Fold change vs veh, ZEB2 / RFU, NRIP1 / Fold change vs veh, NRIP1 / RFU, PTTG1IP / Fold change vs veh, PTTG1IP / RFU, CAPN2 / Fold change vs veh, CAPN2 / RFU, MED14 / Fold change vs veh, MED14 / RFU, SNORA58 / Fold change vs veh, SNORA58 / RFU, C1orf63 / Fold change vs veh, C1orf63 / RFU, LRRFIP1 / Fold change vs veh, LRRFIP1 / RFU, NDUFAF7 / Fold change vs veh, NDUFAF7 / RFU, SLC12A2 / Fold change vs veh, SLC12A2 / RFU, IBTK / Fold change vs veh, IBTK / RFU, ESF1 / Fold change vs veh, ESF1 / Fold change vs veh, TMEM50B / RFU, TAOK1 / Fold change vs veh, TAOK1 / RFU, ACBD3 / Fold change vs veh, ACBD3 / RFU, TMA16 / Fold change vs veh, TMA16 / RFU, RWDD3 / Fold change vs veh, RWDD3 / RFU, BCAT1 / Fold change vs veh, BCAT1 / RFU, EDEM3 / Fold change vs veh, EDEM3 / RFU, TMEM33 / Fold change vs veh, TMEM33 / RFU, WDR75 / Fold change vs veh, WDR75 / RFU, AHCTF1 / Fold change vs veh, AHCTF1 / RFU, TFRC / Fold change vs veh, TFRC / RFU, ZDHHC17 / Fold change vs veh, ZDHHC17 / RFU, NOM1 / Fold change vs veh, NOM1 / RFU, ARL8B / Fold change vs veh, ARL8B / RFU, ZBTB11 / Fold change vs veh, ZBTB11 / RFU, TAMM41 / Fold change vs veh, TAMM41 / RFU, KIAA1704 /// LOC100996395 / Fold change vs veh, KIAA1704 /// LOC100996395 / RFU, ING1 / Fold change vs veh, ING1 / RFU, TRMT61B / Fold change vs veh, TRMT61B / RFU, FUBP3 / Fold change vs veh, FUBP3 / RFU, TP53 / Fold change vs veh, TP53 / RFU, TNKS2 / Fold change vs veh, TNKS2 / RFU, ZFP14 / Fold change vs veh, ZFP14 / RFU, ACTR2 / Fold change vs veh, ACTR2 / RFU, PPP3R1 / Fold change vs veh, PPP3R1 / RFU, PIK3R1 / Fold change vs veh, PIK3R1 / RFU, HNRNPA1 / Fold change vs veh, HNRNPA1 / RFU, RNF170 / Fold change vs veh, RNF170 / RFU, ZNF28 / Fold change vs veh, ZNF28 / RFU, RNGTT / Fold change vs veh, RNGTT / RFU, OGT / Fold change vs veh, OGT / RFU, BRD1 / Fold change vs veh, BRD1 / RFU, MARS / Fold change vs veh, MARS / RFU, ZNF655 / Fold change vs veh, ZNF655 / RFU, FAHD1 / Fold change vs veh, FAHD1 / RFU, BDP1 / Fold change vs veh, BDP1 / RFU, LRRCC1 / Fold change vs veh, LRRCC1 / RFU, ARID1A / Fold change vs veh, ARID1A / RFU, ZNF146 / Fold change vs veh, ZNF146 / RFU, ZNF330 / Fold change vs veh, ZNF330 / RFU, GPN3 / Fold change vs veh, GPN3 / RFU, C9orf123 / Fold change vs veh, C9orf123 / RFU, N4BP2L2 / Fold change vs veh, N4BP2L2 / RFU, ARFIP1 / Fold change vs veh, ARFIP1 / RFU, FAM179B / Fold change vs veh, FAM179B / RFU, BCL10 / Fold change vs veh, BCL10 / RFU, UHRF1BP1L / Fold change vs veh, UHRF1BP1L / RFU, BET1 / Fold change vs veh, BET1 / RFU, CNOT2 / Fold change vs veh, CNOT2 / RFU, ZNF268 / Fold change vs veh, ZNF268 / Fold change vs veh, ZNF507 / RFU, DGCR2 / Fold change vs veh, DGCR2 / RFU, WDSUB1 / Fold change vs veh, WDSUB1 / Fold change vs veh, HSP90B1 /// MIR3652 / RFU, ADSS / Fold change vs veh, ADSS / RFU, GK / Fold change vs veh, GK / RFU, ZNF148 / Fold change vs veh, ZNF148 / RFU, TAF9 / Fold change vs veh, TAF9 / RFU, SLC1A5 / Fold change vs veh, SLC1A5 / RFU, SLMO2 / Fold change vs veh, SLMO2 / RFU, ABCC4 / Fold change vs veh, ABCC4 / RFU, LOC101060439 /// RAP1B / Fold change vs veh, LOC101060439 /// RAP1B / RFU, RFX7 / Fold change vs veh, RFX7 / RFU, GTPBP10 / Fold change vs veh, GTPBP10 / RFU, CNEP1R1 / Fold change vs veh, CNEP1R1 / RFU, BIVM-ERCC5 /// ERCC5 / Fold change vs veh, BIVM-ERCC5 /// ERCC5 / RFU, ILF3 / Fold change vs veh, ILF3 / RFU 11762660_at / Fold change /veh 11762660_at / RFU VCAN (11757783_s_at) / Fold change /veh VCAN (11757783_s_at) / RFU DDX43 (11728927_at) / Fold change /veh DDX43 (11728927_at) / RFU KRT8 (11758188_x_at) / Fold change /veh KRT8 (11758188_x_at) / RFU NKD1 (11759106_at) / Fold change /veh NKD1 (11759106_at) / RFU SRD5A1 (11742802_a_at) / Fold change /veh SRD5A1 (11742802_a_at) / RFU TPSAB1 /// TPSB2 (11721975_s_at) / Fold change /veh TPSAB1 /// TPSB2 (11721975_s_at) / RFU GSTM3 (11746129_a_at) / Fold change /veh GSTM3 (11746129_a_at) / RFU IL23R (11737362_x_at) / Fold change /veh IL23R (11737362_x_at) / RFU TMEM51 (11727254_a_at) / Fold change /veh TMEM51 (11727254_a_at) / RFU PIWIL2 (11732686_x_at) / Fold change /veh PIWIL2 (11732686_x_at) / RFU ORM1 (11744905_x_at) / Fold change /veh ORM1 (11744905_x_at) / RFU CCDC152 (11743942_at) / Fold change /veh CCDC152 (11743942_at) / RFU ECM1 (11717891_a_at) / Fold change /veh ECM1 (11717891_a_at) / RFU IL23R (11748794_a_at) / Fold change /veh IL23R (11748794_a_at) / RFU TNFAIP8L3 (11732012_x_at) / Fold change /veh TNFAIP8L3 (11732012_x_at) / RFU MBOAT4 (11741988_at) / Fold change /veh MBOAT4 (11741988_at) / RFU 11764193_at / Fold change /veh 11764193_at / RFU TMEM53 (11763286_at) / Fold change /veh TMEM53 (11763286_at) / RFU MAGEB2 (11727129_at) / Fold change /veh MAGEB2 (11727129_at) / RFU TMEM200A (11744735_a_at) / Fold change /veh TMEM200A (11744735_a_at) / RFU CCDC152 (11751479_a_at) / Fold change /veh CCDC152 (11751479_a_at) / RFU FAM211A (11726209_a_at) / Fold change /veh FAM211A (11726209_a_at) / RFU RGS16 (11746705_a_at) / Fold change /veh RGS16 (11746705_a_at) / RFU VCAN (11755009_s_at) / Fold change /veh VCAN (11755009_s_at) / RFU RHOB (11743442_s_at) / Fold change /veh RHOB (11743442_s_at) / RFU RGS16 (11720943_a_at) / Fold change /veh RGS16 (11720943_a_at) / RFU RGS16 (11720944_at) / Fold change /veh RGS16 (11720944_at) / RFU, VPS4B / Fold change vs veh, VPS4B / RFU, CREB1 / Fold change vs veh, CREB1 / RFU, DNAJC13 / Fold change vs veh, DNAJC13 / RFU, GNAQ / Fold change vs veh, GNAQ / RFU, CDK5R1 / Fold change vs veh, CDK5R1 / RFU, ZRANB3 / Fold change vs veh, ZRANB3 / RFU, CUL4A / Fold change vs veh, CUL4A / RFU, CCNY / Fold change vs veh, CCNY / RFU, UFL1 / Fold change vs veh, UFL1 / RFU, COG3 / Fold change vs veh, COG3 / RFU, DIAPH2 / Fold change vs veh, DIAPH2 / RFU, SKA2 / Fold change vs veh, SKA2 / RFU, AFF3 / Fold change vs veh, AFF3 / RFU, LMF1 / Fold change vs veh, LMF1 / RFU, IPO11 / Fold change vs veh, IPO11 / RFU, DFFB / Fold change vs veh, DFFB / RFU, FOXP1 / Fold change vs veh, FOXP1 / RFU, CARD8 / Fold change vs veh, CARD8 / RFU, STRN3 / Fold change vs veh, STRN3 / RFU, ADK / Fold change vs veh, ADK / RFU, RASSF2 / Fold change vs veh, RASSF2 / RFU, WIPF1 / Fold change vs veh, WIPF1 / RFU, LARP1B / Fold change vs veh, LARP1B / RFU, RASA1 / Fold change vs veh, RASA1 / RFU, RB1 / Fold change vs veh, RB1 / RFU, PPFIA1 / Fold change vs veh, PPFIA1 / RFU, MAT2A / Fold change vs veh, MAT2A / RFU, CCT5 / Fold change vs veh, CCT5 / RFU, WDR92 / Fold change vs veh, WDR92 / RFU, CUX1 / Fold change vs veh, CUX1 / RFU, TTC7A / Fold change vs veh, TTC7A / RFU, TMEM135 / Fold change vs veh, TMEM135 / RFU, DEPTOR / Fold change vs veh, DEPTOR / RFU, CPM / Fold change vs veh, CPM / RFU, DNAJB6 / Fold change vs veh, DNAJB6 / RFU, CACNA2D3 / Fold change vs veh, CACNA2D3 / RFU, DTX4 / Fold change vs veh, DTX4 / RFU, TFCP2 / Fold change vs veh, TFCP2 / RFU, GMCL1 /// GMCL1P1 / Fold change vs veh, GMCL1 /// GMCL1P1 / RFU, AEBP2 / Fold change vs veh, AEBP2 / RFU, SNHG1 /// SNORD22 /// SNORD25 /// SNORD26 /// SNORD27 /// SNORD28 /// SNORD29 /// SNORD31 / Fold change vs veh, SNHG1 /// SNORD22 /// SNORD25 /// SNORD26 /// SNORD27 /// SNORD28 /// SNORD29 /// SNORD31 / Fold change (Aza/veh), C12orf56 (ProbeSet 11735607_a_at) / Fold change (ACY-1035/veh), C12orf56 (ProbeSet 11735607_a_at) / Fold change (Aza/veh), FGFR1OP (ProbeSet 11751329_s_at) / Fold change (ACY-1035/veh), FGFR1OP (ProbeSet 11751329_s_at) / Fold change (Aza/veh), VPS36 (ProbeSet 11739960_a_at) / Fold change (ACY-1035/veh), VPS36 (ProbeSet 11739960_a_at) / RFU SYPL1 (11715823_x_at) / Fold change /veh SYPL1 (11715823_x_at) / RFU IGFBP7 (11715501_s_at) / Fold change /veh IGFBP7 (11715501_s_at) / RFU REEP3 (11722064_at) / Fold change /veh REEP3 (11722064_at) / RFU IGLL1 (11728026_x_at) / Fold change /veh IGLL1 (11728026_x_at): dose or concentration left out as unconfirmed
Settings: ProbeSet 11758440_s_at; LIST B

SMILES: Nc1ncn([C@@H]2O[C@H](CO)[C@@H](O)[C@H]2O)c(=O)n1 [azacitidine]
- Fold change vs veh, RFX7: 0.86
